For this test, the system named is tobacco bacterial rot (Pectobacterium carotovorum). Description: Suppression of tobacco bacterial rot. It counts as in vivo, Pectobacterium carotovorum SCC1. As to the method:
A tobacco or cucumber was sown in a plastic pot with a diameter of 10 cm×13 cm, and then, 12 pots were added in a yellow box. After seeding, 100 μL was inoculated to the cotyledons of cucumber or tobacco, in which first leaf was started to come out. The test compounds were dissolved in 20% methanol to make a stock solution, and then, the stock solution was diluted to the concentrations of 1, 10, and 100 ppm.
After 7 days, the pathogen of a plant bacterial rot (Pectobacterium carotovorum SCC1) was cultured in a TSA medium for 27 hours; and then, the cultured pathogen was sprayed in a concentration of 10^8 cfu/mL to the plant leaves, and cultured at 30° C. for 3 days. The plant anthracnose germ (Colletotrichum orbiculare) was cultured in a GBA (Green bean agar) medium to induce spores for about 2 to 3 weeks. The germ was sprayed in a concentration of 10^5 cell/mL and then cultured at 26° C. for 1 day. When fourth or fifth leaf came out, 200 μL of each of the test compounds was inoculated to third leaf. After 7 days, the pathogen of the plant bacterial rot was sprayed to the plant leaves in the concentration of 10^8 cfu/mL, and then cultured at 30° C. for 3 days.
The investigation was performed with naked eyes, and the lesion relative areas were investigated until 0 to 100% according to the shortness degrees of the bacterial rot. The anthracnose was investigated by counting the number of lesions occurred on the leaves.

Each structure is given as a SMILES string. Square brackets hold non-standard residues; d marks the D form. Peptide text beside a SMILES is read from it. * marks the point of attachment. ξ: configuration not given here. dIle(3ξ) = CCC(C)[C@@H](N)C(=O)O; Boc = CC(C)(C)OC(=O)*; OtBu = CC(C)(C)O*

Take `COC(=O)[C@H]1CCCN1C(=O)[C@H](CC(=O)OC(C)(C)C)NC(=O)OC(C)(C)C` [Compound 37] (Boc-Asp(OtBu)-[dP]-OMe): the Lesion outbreak rate runs as follows: (Table 4, tobacco, 1 ppm) 5%; (Table 4, tobacco, 10 ppm) 5%; (Table 4, tobacco, 100 ppm) 43%.

With `COC(=O)[C@H]1CCCN1C(=O)CNC(=O)OC(C)(C)C` [Compound 38] (Boc-Gly-[dP]-OMe), the Lesion outbreak rate is given as 13% (Table 4, tobacco, 1 ppm); 80% (Table 4, tobacco, 10 ppm); 60% (Table 4, tobacco, 100 ppm).

Turning to `COC(=O)[C@H]1CCCN1C(=O)[C@H](CO)NC(=O)OC(C)(C)C` [Compound 39] (Boc-Ser-[dP]-OMe), the Lesion outbreak rate was 35% (Table 4, tobacco, 1 ppm); 10% (Table 4, tobacco, 10 ppm); 43% (Table 4, tobacco, 100 ppm).

`COC(=O)[C@H]1CCCN1C(=O)[C@H](CCSC)NC(=O)OC(C)(C)C` [Compound 40] (Boc-Met-[dP]-OMe): the Lesion outbreak rate was found to be 8% (Table 4, tobacco, 1 ppm); 45% (Table 4, tobacco, 10 ppm); 43% (Table 4, tobacco, 100 ppm).

For `COC(=O)[C@H]1CCCN1C(=O)[C@H](CC(N)=O)NC(=O)OC(C)(C)C` [Compound 41] (Boc-Asn-[dP]-OMe), the Lesion outbreak rate was 30% (Table 4, tobacco, 1 ppm); 50% (Table 4, tobacco, 10 ppm); 18% (Table 4, tobacco, 100 ppm).

Regarding `COC(=O)[C@H]1CCCN1C(=O)[C@H](Cc1ccccc1)NC(=O)OC(C)(C)C` [Compound 42] (Boc-Phe-[dP]-OMe), the Lesion outbreak rate is, setting by setting: (Table 4, tobacco, 1 ppm) 43%; (Table 4, tobacco, 10 ppm) 60%; (Table 4, tobacco, 100 ppm) 45%.

Compound `COC(=O)[C@H]1CCCN1C(=O)[C@H](Cc1c[nH]c2ccccc12)NC(=O)OC(C)(C)C` [Compound 43] (Boc-Trp-[dP]-OMe) gave a Lesion outbreak rate (Table 4, tobacco, 1 ppm) of 35%; a Lesion outbreak rate (Table 4, tobacco, 10 ppm) of 45%; a Lesion outbreak rate (Table 4, tobacco, 100 ppm) of 31%.

`COC(=O)[C@H]1CCCN1C(=O)[C@H](C)NC(=O)OC(C)(C)C` [Compound 44] (Boc-Ala-[dP]-OMe): the Lesion outbreak rate reads like this: (Table 4, tobacco, 1 ppm) 46%; (Table 4, tobacco, 10 ppm) 37%; (Table 4, tobacco, 100 ppm) 33%.

On to `COC(=O)[C@H]1CCCN1C(=O)[C@H](CCC(N)=O)NC(=O)OC(C)(C)C` [Compound 45] (Boc-Gln-[dP]-OMe), for which the Lesion outbreak rate came out at 83% (Table 4, tobacco, 1 ppm); 33% (Table 4, tobacco, 10 ppm); 55% (Table 4, tobacco, 100 ppm).

As to `COC(=O)[C@H]1CCCN1C(=O)[C@H](Cc1c[nH]cn1)NC(=O)OC(C)(C)C` [Compound 46], the Lesion outbreak rate stood at 56% (Table 4, tobacco, 1 ppm); 70% (Table 4, tobacco, 10 ppm); 48% (Table 4, tobacco, 100 ppm).

`COC(=O)C1CCCN1C(=O)C(NC(=O)OC(C)(C)C)C(C)O` (stereo not drawn) [Compound 47] (Boc-Thr-Pro-OMe; configuration not given here) returned a Lesion outbreak rate (Table 5, tobacco, 10 ppm) of 0% and a Lesion outbreak rate (Table 5, tobacco, 100 ppm) of 50%.

With `COC(=O)[C@H]1CCCN1C(=O)[C@H](CCCCNC(=O)OC(C)(C)C)NC(=O)OC(C)(C)C` [Compound 48] (Boc-Lys(Boc)-[dP]-OMe), the Lesion outbreak rate was 25% (Table 5, tobacco, 10 ppm) and 50% (Table 5, tobacco, 100 ppm).

On to `COC(=O)[C@H]1CCCN1C(=O)[C@@H](NC(=O)OC(C)(C)C)C(C)C` [Compound 49] (Boc-Val-[dP]-OMe), for which the Lesion outbreak rate was determined as 23% (Table 5, tobacco, 10 ppm) and 0% (Table 5, tobacco, 100 ppm).

As for `COC(=O)[C@H]1CCCN1C(=O)[C@H](CCC(=O)OC(C)(C)C)NC(=O)OC(C)(C)C` [Compound 50] (Boc-Glu(OtBu)-[dP]-OMe), the Lesion outbreak rate (Table 5, tobacco, 10 ppm) came out at 35% and the Lesion outbreak rate (Table 5, tobacco, 100 ppm) is recorded as 60%.

With `COC(=O)[C@@H]1CCCN1C(=O)[C@@H](C)NC(=O)OC(C)(C)C` [Compound 51] (Boc-[dA]-Pro-OMe), the Lesion outbreak rate reads like this: (Table 5, tobacco, 10 ppm) 0%; (Table 5, tobacco, 100 ppm) 68%.

As for `COC(=O)[C@@H]1CCCN1C(=O)[C@@H](Cc1c[nH]c2ccccc12)NC(=O)OC(C)(C)C` [Compound 52] (Boc-[dW]-Pro-OMe), the Lesion outbreak rate (Table 5, tobacco, 10 ppm) came out at 0% and the Lesion outbreak rate (Table 5, tobacco, 100 ppm) is listed as 25%.

Regarding `COC(=O)[C@@H]1CCCN1C(=O)[C@@H](Cc1ccc(O)cc1)NC(=O)OC(C)(C)C` [Compound 53] (Boc-[dY]-Pro-OMe), the Lesion outbreak rate by setting is: (Table 5, tobacco, 10 ppm) 45%; (Table 5, tobacco, 100 ppm) 50%.

For the compound `COC(=O)[C@@H]1CCCN1C(=O)[C@@H](CCC(N)=O)NC(=O)OC(C)(C)C` [Compound 54] (Boc-[dQ]-Pro-OMe), the Lesion outbreak rate came out at 36% (Table 5, tobacco, 10 ppm) and 60% (Table 5, tobacco, 100 ppm).

With `COC(=O)[C@@H]1CCCN1C(=O)[C@H]1CCCN1C(=O)OC(C)(C)C` [Compound 55] (Boc-[dP]-Pro-OMe), the Lesion outbreak rate (Table 5, tobacco, 10 ppm) is reported as 48% and the Lesion outbreak rate (Table 5, tobacco, 100 ppm) is listed as 36%.

In the case of `COC(=O)[C@@H]1CCCN1C(=O)[C@H](NC(=O)OC(C)(C)C)C(C)C` [Compound 56] (Boc-[dV]-Pro-OMe), the Lesion outbreak rate is, setting by setting: (Table 5, tobacco, 10 ppm) 13%; (Table 5, tobacco, 100 ppm) 40%.

`COC(=O)[C@@H]1CCCN1C(=O)[C@@H](CC(C)C)NC(=O)OC(C)(C)C` [Compound 57] (Boc-[dL]-Pro-OMe): the Lesion outbreak rate stood at 25% (Table 5, tobacco, 10 ppm) and 25% (Table 5, tobacco, 100 ppm).

For `CCC(C)[C@@H](NC(=O)OC(C)(C)C)C(=O)N1CCC[C@H]1C(=O)OC` (stereo partly drawn) [Compound 58] (Boc-[dIle(3ξ)]-Pro-OMe), the Lesion outbreak rate was determined as 28% (Table 5, tobacco, 10 ppm) and 13% (Table 5, tobacco, 100 ppm).

On to `COC(=O)[C@@H]1CCCN1C(=O)[C@@H](Cc1ccccc1)NC(=O)OC(C)(C)C` [Compound 59] (Boc-[dF]-Pro-OMe), for which the Lesion outbreak rate is, setting by setting: (Table 5, tobacco, 10 ppm) 38%; (Table 5, tobacco, 100 ppm) 25%.

Take `COC(=O)[C@@H]1CCCN1C(=O)[C@@H](CO)NC(=O)OC(C)(C)C` [Compound 60] (Boc-[dS]-Pro-OMe): the Lesion outbreak rate is, setting by setting: (Table 5, tobacco, 10 ppm) 18%; (Table 5, tobacco, 100 ppm) 56%.

For the compound `COC(=O)[C@@H]1CCCN1C(=O)[C@@H](CCSC)NC(=O)OC(C)(C)C` [Compound 63] (Boc-[dM]-Pro-OMe), the Lesion outbreak rate runs as follows: (Table 5, tobacco, 10 ppm) 56%; (Table 5, tobacco, 100 ppm) 52%.

`COC(=O)[C@H]1CCCN1C(=O)[C@@H](CO)NC(=O)OC(C)(C)C` [Compound 64] (Boc-[dS]-[dP]-OMe): the Lesion outbreak rate by setting is: (Table 6, tobacco, 1 ppm) 100%; (Table 6, tobacco, 10 ppm) 23%; (Table 6, tobacco, 100 ppm) 100%.

As to `COC(=O)[C@H]1CCCN1C(=O)[C@@H](Cc1ccccc1)NC(=O)OC(C)(C)C` [Compound 65] (Boc-[dF]-[dP]-OMe), the Lesion outbreak rate reads like this: (Table 6, tobacco, 1 ppm) 80%; (Table 6, tobacco, 10 ppm) 57%; (Table 6, tobacco, 100 ppm) 55%.

Regarding `COC(=O)[C@H]1CCCN1C(=O)[C@@H](CCSC)NC(=O)OC(C)(C)C` [Compound 68] (Boc-[dM]-[dP]-OMe), the Lesion outbreak rate is 78% (Table 6, tobacco, 1 ppm); 53% (Table 6, tobacco, 10 ppm); 25% (Table 6, tobacco, 100 ppm).

For `COC(=O)[C@H]1CCCN1C(=O)[C@@H](C)NC(=O)OC(C)(C)C` [Compound 70] (Boc-[dA]-[dP]-OMe), the Lesion outbreak rate came to 80% (Table 6, tobacco, 1 ppm); 72% (Table 6, tobacco, 10 ppm); 77% (Table 6, tobacco, 100 ppm).

Regarding `COC(=O)[C@H]1CCCN1C(=O)[C@@H](Cc1ccc(O)cc1)NC(=O)OC(C)(C)C` [Compound 71] (Boc-[dY]-[dP]-OMe), the Lesion outbreak rate was determined as 60% (Table 6, tobacco, 1 ppm); 65% (Table 6, tobacco, 10 ppm); 40% (Table 6, tobacco, 100 ppm).

For `COC(=O)[C@H]1CCCN1C(=O)[C@@H](CCC(N)=O)NC(=O)OC(C)(C)C` [Compound 72] (Boc-[dQ]-[dP]-OMe), the Lesion outbreak rate by setting is: (Table 6, tobacco, 1 ppm) 55%; (Table 6, tobacco, 10 ppm) 72%; (Table 6, tobacco, 100 ppm) 45%.

As for `COC(=O)[C@H]1CCCN1C(=O)[C@@H](Cc1c[nH]c2ccccc12)NC(=O)OC(C)(C)C` [Compound 73] (Boc-[dW]-[dP]-OMe), the Lesion outbreak rate was 35% (Table 6, tobacco, 1 ppm); 60% (Table 6, tobacco, 10 ppm); 46% (Table 6, tobacco, 100 ppm).

Turning to `COC(=O)[C@H]1CCCN1C(=O)[C@@H](CC(C)C)NC(=O)OC(C)(C)C` [Compound 75] (Boc-[dL]-[dP]-OMe), the Lesion outbreak rate (Table 6, tobacco, 1 ppm) amounted to 25%; the Lesion outbreak rate (Table 6, tobacco, 10 ppm) is 80%; the Lesion outbreak rate (Table 6, tobacco, 100 ppm) is recorded as 100%.

As to `COC(=O)[C@H]1CCCN1C(=O)[C@H](NC(=O)OC(C)(C)C)C(C)C` [Compound 76] (Boc-[dV]-[dP]-OMe), the Lesion outbreak rate by setting is: (Table 6, tobacco, 1 ppm) 46%; (Table 6, tobacco, 10 ppm) 41%; (Table 6, tobacco, 100 ppm) 37%.

For the origin of these results see patent publication US20150119251A1, “AGRICULTURAL PLANT-PROTECTING AGENTS CONTAINING DIPEPTIDE DERIVATIVE AS ACTIVE INGREDIENT” (REPUBLIC OF KOREA (RURAL DEVELOPMENT ADMINISTRATION), priority 2012, published 2015).
